Assay [1] concerns polypeptide consisting of the amino acid sequence shown in SEQ ID NO: 3 (carbonyl reductase), cell-free extract of E. coli HB101 (pNTOM3). The assay can be described thus: Substrate specificity of polypeptide produced by transformant E. coli HB101 (pNTOM3). Type of assay: biochemical, Ogataea minuta var. minuta NBRC0975. The settings on record: 1 mM substrate, 0.25 mM NADPH, pH 6.5, 30° C., 1 min; relative to activity on CBPB as 100%. The method, then: (§1) In 100 mM phosphate buffer (pH 6.5) containing 0.33% (v/v) dimethyl sulfoxide were dissolved a carbonyl compound to be a substrate to a final concentration of 1 mM, and a coenzyme NADPH to a final concentration of 0.25 mM, respectively. Thereto was added a cell-free extract of E. coli HB101 (pNTOM4) or E. coli HB101 (pNTOM3) prepared in Example 7, and the mixture was reacted at 30° C. for 1 min. The reduction activity on each carbonyl compound was calculated from the rate of decrease in the absorbance of the reaction mixture at a wavelength of 340 nm, and shown in Table 2 as a value relative to the activity on (3S)-1-chloro-3-tert-butoxycarbonylamino-4-phenyl-2-butanone as 100%.

Assay [2] relates to polypeptide consisting of the amino acid sequence shown in SEQ ID NO: 4 (carbonyl reductase), cell-free extract of E. coli HB101 (pNTOM4). The assay can be described thus: Substrate specificity of polypeptide produced by transformant E. coli HB101 (pNTOM4). Type of assay: biochemical, Ogataea minuta var. minuta NBRC0975. Particulars: 1 mM substrate, 0.25 mM NADPH, pH 6.5, 30° C., 1 min; relative to activity on CBPB as 100%. The method, then: as §1

SMILES strings stand for the structures.

As to `CC(=O)c1ccc(Cl)cc1` [4′-chloroacetophenone], the “relative activity (%) E. coli HB101 (pNTOM3)” value in assay [1] is 35%. Further, the “relative activity (%) E. coli HB101 (pNTOM4)” value in assay [2] is on record as 9%.
The corresponding values for `O=C(CO)c1ccccc1` [2-hydroxyacetophenone] are 32% and 1%.
In the case of `CC(=O)c1ccccn1` [2-acetylpyridine], the “relative activity (%) E. coli HB101 (pNTOM3)” value in assay [1] came out at 29%. Further, the “relative activity (%) E. coli HB101 (pNTOM4)” value in assay [2] is given as 0%.
For `O=Cc1ccccc1[N+](=O)[O-]` [o-nitrobenzaldehyde], in assay [1], the “relative activity (%) E. coli HB101 (pNTOM3)” value stood at 1621%. The “relative activity (%) E. coli HB101 (pNTOM4)” value in assay [2] was 89%.
For `CCOC(=O)C(C)=O` [ethyl pyruvate], the “relative activity (%) E. coli HB101 (pNTOM3)” value in assay [1] came to 1067%. Also, the “relative activity (%) E. coli HB101 (pNTOM4)” value in assay [2] was 23%.
For the compound `CCOC(=O)C(=O)c1ccccc1` [ethyl benzoylformate], the “relative activity (%) E. coli HB101 (pNTOM3)” value in assay [1] is on record as 296%. For the same compound, the “relative activity (%) E. coli HB101 (pNTOM4)” value in assay [2] is 20%.
The corresponding values for `CCCCCC=O` [n-hexylaldehyde] are 265% and 3%.
In the same order, the values of `CCCCCC(C)=O` [2-heptanone] are 102% and 0%.
As for `COc1ccc(C(C)=O)cc1OC` [3′,4′-dimethoxyacetophenone], the “relative activity (%) E. coli HB101 (pNTOM3)” value in assay [1] is on record as 51%. In addition, in assay [2], the “relative activity (%) E. coli HB101 (pNTOM4)” value is on record as 4%.
For the compound `CCCCCCCCOC(=O)CC(=O)CCl` [n-octyl 4-chloroacetoacetate], in assay [1], the “relative activity (%) E. coli HB101 (pNTOM3)” value came to 466%. For the same compound, the “relative activity (%) E. coli HB101 (pNTOM4)” value in assay [2] came to 24%.
Regarding `O=C1CCCc2ccccc21` [1-tetoralone], the “relative activity (%) E. coli HB101 (pNTOM3)” value in assay [1] is 146%. The “relative activity (%) E. coli HB101 (pNTOM4)” value in assay [2] is recorded as 1%.
The corresponding values for `CCOC(=O)C1CCC(=O)C1` (centres unmarked) [ethyl 3-oxocyclopentanecarboxylate] are 484% and 12%.
As for `O=Cc1ccncc1` [pyridine-4-aldehyde], the “relative activity (%) E. coli HB101 (pNTOM3)” value in assay [1] is recorded as 571%. Besides, in assay [2], the “relative activity (%) E. coli HB101 (pNTOM4)” value worked out at 2%.
In the same order, the values of `O=Cc1cccc(Cl)c1` [m-chlorobenzaldehyde] are 344% and 17%.
On to `O=Cc1ccccc1Cl` [o-chlorobenzaldehyde], for which the “relative activity (%) E. coli HB101 (pNTOM3)” value in assay [1] worked out at 269%. Besides, in assay [2], the “relative activity (%) E. coli HB101 (pNTOM4)” value amounted to 17%.
Regarding `CCOC(=O)CC(=O)CBr` [ethyl 4-bromoacetoacetate], the “relative activity (%) E. coli HB101 (pNTOM3)” value in assay [1] came out at 476%. The “relative activity (%) E. coli HB101 (pNTOM4)” value in assay [2] is recorded as 7%.
On to `CC(=O)CC(=O)OC(C)(C)C` [tert-butyl acetoacetate], for which the “relative activity (%) E. coli HB101 (pNTOM3)” value in assay [1] is listed as 1330%. In addition, the “relative activity (%) E. coli HB101 (pNTOM4)” value in assay [2] is on record as 2%.
The corresponding values for `CC(C)(C)OC(=O)N[C@@H](Cc1ccccc1)C(=O)CCl` [CBPB, (3S)-1-chloro-3-tert-butoxycarbonylamino-4-phenyl-2-butanone] are 100% and 100%.
On to `O=Cc1ccc(Cl)cc1` [p-chlorobenzaldehyde], for which the “relative activity (%) E. coli HB101 (pNTOM3)” value in assay [1] is 91%. The “relative activity (%) E. coli HB101 (pNTOM4)” value in assay [2] is recorded as 12%.
In the case of `CCOC(=O)CC(=O)COC(C)=O` [ethyl 4-acetoxyacetoacetate], the “relative activity (%) E. coli HB101 (pNTOM3)” value in assay [1] was 465%. Besides, in assay [2], the “relative activity (%) E. coli HB101 (pNTOM4)” value is 1%.
The corresponding values for `COc1ccc2c(c1)CC(=O)CC2` [7-methoxy-2-tetoralone] are 599% and 6%.
For `CCCCC(C)=O` [2-hexanone], in assay [1], the “relative activity (%) E. coli HB101 (pNTOM3)” value is reported as 11%. Further, the “relative activity (%) E. coli HB101 (pNTOM4)” value in assay [2] is reported as 0%.

Source of the values: US7915022B2, “Carbonyl reductase, gene thereof and method of using the same” (priority 2004, dated 2011).
